According to PubChem BioAssay (NCI):
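Cells were grown in 96-well plates and exposed to each compound for 48 hours at five concentrations; endpoints were interpolated linearly between bracketing concentrations, or set to the highest concentration if not reached. Here, GI50 denotes the concentration required for 50% inhibition of growth. At the TGI there is no net growth.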

Tests used:
Assay in all cases: NCI-60 cell line screen, 48 h
[1] = test system: SR leukemia
[2] = test system: LOX IMVI melanoma
[3] = test system: RPMI-8226 leukemia
[4] = test system: UACC-62 melanoma
[5] = test system: MDA-N
[6] = test system: NCI-H522 lung
[7] = test system: T-47D breast
[8] = test system: MOLT-4 leukemia
[9] = test system: ACHN renal
[10] = test system: 786-0 renal
[11] = test system: NCI/ADR-RES ovarian
[12] = test system: OVCAR-5 ovarian
[13] = test system: HCC-2998 colon
[14] = test system: TK-10 renal
[15] = test system: SK-MEL-5 melanoma
[16] = test system: NCI-H226 lung
[17] = test system: MDA-MB-435
[18] = test system: MDA-MB-231 breast
[19] = test system: MCF7 breast
[20] = test system: HL-60(TB) leukemia
[21] = test system: PC-3 prostate
[22] = test system: MALME-3M melanoma
[23] = test system: SNB-75 CNS
[24] = test system: OVCAR-3 ovarian
[25] = test system: COLO 205 colon
[26] = test system: SF-268 CNS
[27] = test system: HOP-92 NSCLC
[28] = test system: A549 NSCLC
[29] = test system: SK-OV-3 ovarian
[30] = test system: SNB-19 CNS
[31] = test system: HT29 colon
[32] = test system: SN12C renal
[33] = test system: OVCAR-4 ovarian
[34] = test system: NCI-H460 lung
[35] = test system: SW-620 colon
[36] = test system: U251 CNS
[37] = test system: SK-MEL-28 melanoma
[38] = test system: UACC-257 melanoma
[39] = test system: OVCAR-8 ovarian
[40] = test system: M14 melanoma
[41] = test system: K-562 leukemia
[42] = test system: EKVX NSCLC
[43] = test system: SK-MEL-2 melanoma
[44] = test system: CAKI-1 renal
[45] = test system: SF-295 CNS
[46] = test system: UO-31 renal
[47] = test system: KM12 colon
[48] = test system: NCI-H23 lung
[49] = test system: RXF 393 renal
[50] = test system: A498 renal
[51] = test system: HOP-62 NSCLC
[52] = test system: DU-145 prostate
[53] = test system: BT-549 breast
[54] = test system: HS 578T breast
[55] = test system: CCRF-CEM leukemia
[56] = test system: HCT-15 colon
[57] = test system: HCT-116 colon
[58] = test system: IGROV1 ovarian
[59] = test system: SF-539 CNS

SMILES: CCN(CC)C(=S)SS(=O)(=O)c1ccc(N)cc1
- TGI [1]: > 100 µM
- GI50 [2]: > 100 µM
- TGI [2]: > 100 µM
- TGI [3]: > 100 µM
- TGI [4]: > 100 µM
- TGI [5]: > 100 µM
- TGI [6]: > 26.6 µM
- TGI [7]: > 100 µM
- TGI [8]: > 100 µM
- TGI [9]: > 100 µM
- TGI [10]: > 100 µM
- GI50 [11]: > 100 µM
- TGI [11]: > 100 µM
- TGI [12]: > 100 µM
- TGI [13]: > 100 µM
- GI50 [14]: > 100 µM
- TGI [14]: > 100 µM
- TGI [15]: > 100 µM
- GI50 [16]: 99.2 µM
- TGI [16]: > 100 µM
- GI50 [17]: > 100 µM
- TGI [17]: > 100 µM
- GI50 [18]: > 100 µM
- TGI [18]: > 100 µM
- TGI [19]: > 100 µM
- GI50 [20]: > 100 µM
- TGI [20]: > 100 µM
- GI50 [21]: 90.8 µM
- TGI [21]: > 100 µM
- GI50 [22]: 46.2 µM
- TGI [22]: > 100 µM
- GI50 [23]: 48.5 µM
- TGI [23]: > 100 µM
- GI50 [24]: > 100 µM
- TGI [24]: > 100 µM
- GI50 [25]: > 100 µM
- TGI [25]: > 100 µM
- GI50 [26]: > 100 µM
- TGI [26]: > 100 µM
- TGI [27]: > 100 µM
- TGI [28]: > 100 µM
- TGI [29]: > 100 µM
- TGI [30]: > 100 µM
- TGI [31]: > 100 µM
- GI50 [32]: > 100 µM
- TGI [32]: > 100 µM
- GI50 [33]: > 100 µM
- TGI [33]: > 100 µM
- TGI [34]: > 100 µM
- GI50 [35]: > 100 µM
- TGI [35]: > 100 µM
- GI50 [36]: > 100 µM
- TGI [36]: > 100 µM
- GI50 [37]: > 100 µM
- TGI [37]: > 100 µM
- GI50 [38]: > 100 µM
- TGI [38]: > 100 µM
- GI50 [39]: > 100 µM
- TGI [39]: > 100 µM
- TGI [40]: > 100 µM
- TGI [41]: > 100 µM
- TGI [42]: > 100 µM
- TGI [43]: > 100 µM
- TGI [44]: > 90.2 µM
- GI50 [45]: > 100 µM
- TGI [45]: > 100 µM
- TGI [46]: > 100 µM
- TGI [47]: > 100 µM
- TGI [48]: > 100 µM
- TGI [49]: > 100 µM
- TGI [50]: > 94.2 µM
- TGI [51]: > 100 µM
- GI50 [52]: > 100 µM
- TGI [52]: > 100 µM
- GI50 [53]: > 100 µM
- TGI [53]: > 100 µM
- TGI [54]: > 100 µM
- GI50 [55]: > 100 µM
- TGI [55]: > 100 µM
- GI50 [56]: > 100 µM
- TGI [56]: > 100 µM
- GI50 [57]: > 100 µM
- TGI [57]: > 100 µM
- TGI [58]: > 100 µM

SMILES: CCCCCCCCCCCCCCCC(=O)Nc1ccn(C2CC(OP(=O)(O)OCC3OC(n4cc(F)c(=O)[nH]c4=O)CC3OC(C)=O)C(CO)O2)c(=O)n1 (configuration not stated)
- TGI [1]: 22.7 µM
- TGI [2]: > 100 µM
- TGI [3]: 27.9 µM
- TGI [4]: > 47.2 µM
- TGI [5]: > 100 µM
- TGI [6]: 37.7 µM
- TGI [7]: > 100 µM
- TGI [8]: 34.4 µM
- TGI [9]: 3.54 µM
- TGI [10]: > 100 µM
- TGI [11]: 46.1 µM
- TGI [12]: > 64.5 µM
- TGI [13]: > 36.5 µM
- TGI [14]: > 100 µM
- TGI [15]: > 96.5 µM
- TGI [16]: > 100 µM
- TGI [17]: > 94.8 µM
- TGI [18]: > 61.5 µM
- TGI [19]: > 100 µM
- TGI [20]: > 21.9 µM
- TGI [21]: 25.2 µM
- TGI [23]: > 51.6 µM
- TGI [24]: > 100 µM
- TGI [25]: > 66.3 µM
- TGI [26]: > 44.4 µM
- TGI [27]: > 100 µM
- TGI [28]: > 41.3 µM
- TGI [29]: > 51.6 µM
- TGI [30]: > 63.2 µM
- TGI [31]: 52.8 µM
- TGI [32]: > 49.9 µM
- TGI [33]: > 100 µM
- TGI [34]: > 100 µM
- TGI [35]: > 100 µM
- TGI [36]: 71.8 µM
- TGI [37]: > 100 µM
- TGI [38]: > 100 µM
- TGI [39]: > 52.3 µM
- TGI [40]: > 39.7 µM
- TGI [41]: > 100 µM
- TGI [59]: > 39.5 µM
- TGI [42]: > 100 µM
- TGI [43]: > 63.4 µM
- TGI [44]: > 35.7 µM
- TGI [45]: > 45.2 µM
- TGI [46]: 2.75 µM
- TGI [47]: 48.1 µM
- TGI [48]: > 63.9 µM
- TGI [49]: > 71 µM
- TGI [50]: > 100 µM
- TGI [51]: 13.3 µM
- TGI [52]: > 100 µM
- TGI [53]: 62.2 µM
- TGI [54]: 90.9 µM
- TGI [55]: > 100 µM
- TGI [56]: > 65.4 µM
- TGI [57]: > 100 µM
- TGI [58]: > 100 µM
